{"source": "paper PMC6131539", "about": "“Behavioral Effects of a Potential Novel TAAR1 Antagonist” (Frontiers in Pharmacology, 2018)", "key": {"[1]": {"system": "C57BL/6J mice", "test": "Basal locomotor activity in C57BL/6J mice", "assay_type": "in vivo", "protocol": "(§1) Experimentally naïve mice, of at least 12 weeks of age, were used for all behavioral experiments. The mice were randomly assigned to treatment or control groups, balanced by sex and weight. Locomotor activity was assessed using the automated locomotor analysis monitors (Omnitech Electronics, Columbus, OH, United States). The apparatus included four open field monitors. Each Open Field monitor consisted of sets of 16 light beams arrayed in the horizontal X and Y axes. The hardware detected beams broken by the animal, which allowed the software to determine the location of the mouse in the cage. Total distance covered by mice was used to characterize locomotor activity of the animals. The monitors were divided into four compartments (20 cm × 20 cm). Animals were tested individually for defined periods with 5-min intervals. The mice were first weighed and then placed into the apparatus, allowing for 30 min habituation. Following the habituation, the mice were removed from the al apparatus and injected with drugs (see below for administration) or vehicle and returned immediately to the locomotor chamber. The locomotor activity was then measured for additional 1 h. After the experiments, the animals were euthanized by cervical dislocation.\nAll drug solutions were prepared freshly on the day of the experiment and injected i.p. at the volume of 10 ml/kg. […] Amphetamine was dissolved in 0.9% saline at a concentration of 0.2 mg/mL.\nIn order to assess the effects of compound 22 on basal locomotor activity, C57BL/6 mice were injected with doses of 5 and 30 mg/kg of compound 22 or vehicle (Figure 1). At the dose of 5 mg/kg, compound 22 inhibited basal locomotor activity by 58% (^∗p = 0.02). Although not significant, there was a trend toward a decrease in locomotor activity at the dose of 30 mg/kg as well (26% decrease, p = 0.15).\nFIGURE 1 In vivo studies with compound 22 on basal locomotor activity. Wild type C57BL/6J mice were first habituated for 30 min followed by co-injection of saline or compound 22 at a dose of 5 or 30 mg/kg. The locomotor activity was assessed for 60 min after injection. […]"}, "[2]": {"system": "VTA dopamine neurons", "test": "Electrophysiology: spontaneous firing of VTA dopamine neurons in slices", "assay_type": "cell-based, C57Bl/6J mice", "conditions": "100 μM, bath applied 5 min; percentage of baseline", "protocol": "All electrophysiological recordings were performed in slice preparations from C57Bl/6J mice (P21-P30). Briefly, mice were anaesthetized with isoflurane and transcardially perfused with an ice-cold sucrose solution containing (in mM): 50 sucrose, 26.2 NaHCO3, 1.25 glucose, 4.9 MgCl2, 3 kynurenic acid, 0.1 CaCl2, and 1.32 ascorbic acid in bicarbonate-buffered solution (aCSF, described below). Mice were then decapitated and brains were extracted. […] Cells were visualized on an upright microscope using “Dodt-type” gradient contrast infrared optics ([Dodt et al., 2002]) and whole-cell recordings were made using a MultiClamp 700B amplifier (Axon Instruments, Union City, CA, United States). Recording electrodes (3–5 MΩ) were filled with (in mM): 136 potassium-D-gluconate, 4 MgCl2, 1.1 HEPES, 5, EGTA, 10 sodium creatine phosphate, 3.4 Mg-ATP, and 0.1 Na2GTP. […] Spontaneous firing activity was recorded in current-clamp mode. […] Firing data for all neurons was analyzed with the MiniAnalysis program (Synaptosoft) using the same criteria. Drug-induced changes in firing are expressed as a percentage of baseline. Drug effects were calculated by comparing the response during the baseline/pre-drug period to the response 5 min after onset of drug administration. […] We therefore assessed the effects of compound 22 on firing rate of dopamine neurons. […]"}, "[3]": {"system": "TAAR1-KO mice", "test": "Cocaine-induced locomotor activity, co-injection, TAAR1-KO mice", "assay_type": "in vivo", "conditions": "5, 15 and 25 mg/kg co-injected with cocaine 10 mg/kg", "protocol": "The Taarl^-/- (TAAR1-KO) mice were obtained from Lundbeck ([Wolinsky et al., 2007]). All wild type (WT) and TAAR1-KO mice used for experiments were generated from TAAR1-KO heterozygous mice in a C57BL/6J x 129S1/Sv mixed background.\nas §1, with “Following the habituation, the mice were removed from the al apparatus and injected with drugs (see below for administration) or vehicle and returned immediately to the locomotor chamber.” left out, “After the experiments, the animals were euthanized by cervical dislocation.” left out\nThe locomotor activity was assessed for 60 min following the injection. […]"}, "[4]": {"molecular_target": "Dopamine Transporter (Homo sapiens, UniProt Q01959)", "sequence (Q01959 whole entry)": "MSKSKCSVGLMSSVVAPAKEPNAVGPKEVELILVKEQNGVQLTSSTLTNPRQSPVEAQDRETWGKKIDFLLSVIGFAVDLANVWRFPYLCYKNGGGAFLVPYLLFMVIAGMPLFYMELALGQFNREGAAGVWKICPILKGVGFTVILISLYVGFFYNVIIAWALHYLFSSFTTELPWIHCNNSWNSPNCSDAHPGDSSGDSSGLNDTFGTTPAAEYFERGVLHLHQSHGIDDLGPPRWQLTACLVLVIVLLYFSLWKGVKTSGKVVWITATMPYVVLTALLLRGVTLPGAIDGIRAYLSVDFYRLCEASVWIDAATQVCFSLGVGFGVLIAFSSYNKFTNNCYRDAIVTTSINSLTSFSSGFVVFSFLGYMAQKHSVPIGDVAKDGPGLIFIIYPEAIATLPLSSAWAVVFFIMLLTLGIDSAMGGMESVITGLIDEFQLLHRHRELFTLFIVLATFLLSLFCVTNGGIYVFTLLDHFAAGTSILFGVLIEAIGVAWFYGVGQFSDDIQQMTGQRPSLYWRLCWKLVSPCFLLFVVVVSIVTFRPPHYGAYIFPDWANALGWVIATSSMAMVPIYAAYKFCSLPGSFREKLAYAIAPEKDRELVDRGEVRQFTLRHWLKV", "test": "PDSP binding, secondary screen", "protocol": "(§2) This was achieved through the identification of potential pharmacological targets of compound 22 using the Psychoactive Drug Screening Program (PDSP) at University of North Carolina-Chapel-Hill. PDSP provides a platform for screening novel psychoactive compounds on human proteins expressed in the central nervous system in order to identify their biological target(s) ([Besnard et al., 2012]). Binding studies were done on 47 targets at a single dose of compound 22 (10 μM; Supplementary Table S1). This primary screen yielded a total of 5 hits for compound 22 (Table 2). These hits were the serotonin, dopamine, and norepinephrine transporters, as well as the sigma 1 and sigma 2 receptors."}, "[5]": {"molecular_target": "Norepinephrine Transporter (Homo sapiens, UniProt P23975)", "sequence (P23975 whole entry)": "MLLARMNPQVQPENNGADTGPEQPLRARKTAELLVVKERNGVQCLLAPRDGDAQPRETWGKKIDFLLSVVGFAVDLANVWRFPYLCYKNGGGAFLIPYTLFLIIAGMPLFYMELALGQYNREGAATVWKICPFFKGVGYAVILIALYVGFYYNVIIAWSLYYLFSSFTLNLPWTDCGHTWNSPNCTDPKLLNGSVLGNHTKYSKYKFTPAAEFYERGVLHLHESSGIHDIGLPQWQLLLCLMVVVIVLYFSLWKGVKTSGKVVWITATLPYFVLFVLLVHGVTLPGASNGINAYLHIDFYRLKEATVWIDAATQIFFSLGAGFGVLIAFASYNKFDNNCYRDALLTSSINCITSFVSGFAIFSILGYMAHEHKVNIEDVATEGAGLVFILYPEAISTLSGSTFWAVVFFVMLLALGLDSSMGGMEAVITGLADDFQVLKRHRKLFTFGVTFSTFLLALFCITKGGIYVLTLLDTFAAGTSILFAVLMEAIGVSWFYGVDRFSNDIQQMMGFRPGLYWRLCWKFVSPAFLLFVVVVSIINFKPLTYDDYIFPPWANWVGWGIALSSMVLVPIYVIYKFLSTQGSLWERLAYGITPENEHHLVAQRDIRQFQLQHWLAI", "test": "PDSP binding, secondary screen", "protocol": "as §2"}, "[6]": {"molecular_target": "Serotonin Transporter (Homo sapiens, UniProt P31645)", "sequence (P31645 whole entry)": "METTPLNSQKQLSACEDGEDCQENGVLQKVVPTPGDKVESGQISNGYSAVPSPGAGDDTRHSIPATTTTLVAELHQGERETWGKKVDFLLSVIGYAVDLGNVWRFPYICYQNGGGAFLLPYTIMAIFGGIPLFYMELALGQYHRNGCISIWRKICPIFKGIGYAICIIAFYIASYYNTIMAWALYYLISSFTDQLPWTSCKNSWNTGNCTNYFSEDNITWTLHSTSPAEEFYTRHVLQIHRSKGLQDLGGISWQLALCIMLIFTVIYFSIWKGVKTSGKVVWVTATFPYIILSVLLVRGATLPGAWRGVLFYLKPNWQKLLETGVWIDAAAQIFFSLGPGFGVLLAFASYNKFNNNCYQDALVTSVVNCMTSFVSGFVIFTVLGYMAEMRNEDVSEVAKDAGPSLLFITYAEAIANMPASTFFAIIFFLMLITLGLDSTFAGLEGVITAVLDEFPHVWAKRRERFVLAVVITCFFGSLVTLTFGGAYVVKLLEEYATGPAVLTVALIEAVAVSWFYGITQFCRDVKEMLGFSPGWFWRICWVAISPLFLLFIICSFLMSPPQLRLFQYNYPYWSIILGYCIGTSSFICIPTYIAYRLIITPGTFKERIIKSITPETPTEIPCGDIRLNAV", "test": "PDSP binding, secondary screen", "protocol": "as §2"}, "[7]": {"system": "TAAR1", "parameters": "method as in Lam et al., 2015b", "conditions": "previous study; ref Lam et al., 2015b; read-out: IC50 (TAAR1 antagonist); cited from earlier work"}}, "data": [{"smiles": "Clc1ccc(CNCc2ccc(Cn3cncn3)cc2)c(Cl)c1", "note": "[compound 22]", "values": [{"measurement": "inhibition of basal locomotor activity", "setting": "[1]; 5 mg/kg i.p. alone, sum over 60 min vs saline, p = 0.02", "value": 58, "unit": "%"}, {"measurement": "decrease in basal locomotor activity", "setting": "[1]; 30 mg/kg i.p. alone, sum over 60 min vs saline, not significant, p = 0.15", "value": 26, "unit": "%"}, {"measurement": "effect on locomotor activity when administered alone", "setting": "[1]; 5 and 30 mg/kg i.p., administered alone", "value": "did not stimulate locomotor activity"}, {"measurement": "increase in firing rate of dopaminergic neurons from VTA", "setting": "[2]", "value": 88, "unit": "%"}, {"measurement": "effect on locomotor stimulating effects of cocaine", "setting": "[3]", "value": "significantly potentiate"}, {"measurement": "Ki", "setting": "[4]", "value": 1.05, "unit": "µM"}, {"measurement": "Ki", "setting": "[5]", "value": 1.9, "unit": "µM"}, {"measurement": "Ki", "setting": "[6]", "value": 1.8, "unit": "µM"}, {"measurement": "IC50", "setting": "[7]", "value": "> 100", "unit": "µM"}]}]}
